Reference: patent US20230200390A1, “SELECTIVE HERBICIDES BASED ON SUBSTITUTED ISOXAZOLIN CARBOXAMIDES AND MEFENPYR-DIETHYL” (BAYER AKTIENGESELLSCHAFT, priority 2020, published 2023)

Tests used:
Format in all cases: in vivo
[1] = tested on: spring barley, HORVS Montoya; test: Seed treatment with safener; post-emergence herbicide, crop damage; conditions: for HER effect + SAF / Reduction [%] / Reduction [Difference]: mefenpyr-diethyl 0.5 g a.i./kg seed
Outline: (§1)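 Wheat and barley seeds were coated with safener (g a.i./kg seed) in a slurry prediluted with milk, then sown and grown to BBCH 12. WP herbicides with 1 l/ha MERO in 300 l/ha water were sprayed post-emergence, with untreated-seed plants as reference. Crop damage (%) was scored visually at 10 and 21 DAT.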

[2] = tested on: spring wheat, TRZAS Triso; test: as above; conditions: 21 DAT; for HER effect + SAF [%] (crop damage) / Reduction [%] / Reduction [Difference]: mefenpyr-diethyl 0.5 g a.i./kg seed; for HER effect [%] (crop damage, herbicide without safener): no safener
Outline: as §1

[3] = tested on: spring barley, HORVS Montoya; test: Tank-mix; post-emergence: crop damage by herbicide with/without safener mefenpyr-diethyl
Outline: (§2)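 Greenhouse-grown spring wheat and barley treated post-emergence at 1–3-leaf stage with herbicide alone or tank-mixed with safener, sprayed at various dosages in 300 l/ha water. Crop injury scored visually 1–3 weeks after treatment as % vs untreated (0 none, 100 complete kill).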

[4] = tested on: spring wheat, TRZAS Triso; test: as above; conditions: 21 DAT
Outline: as §2

[5] = HER 4 g a.i./ha post-emergence, 21 DAT
[6] = HER 16 g a.i./ha post-emergence, 21 DAT
[7] = HER 1 g a.i./ha + mefenpyr-diethyl 50 g a.i./ha, 10 DAT
[8] = HER 1 g a.i./ha + mefenpyr-diethyl 50 g a.i./ha
[9] = HER 8 g a.i./ha post-emergence, 10 DAT
[10] = HER 32 g a.i./ha post-emergence, 10 DAT
[11] = herbicide alone 8 g a.i./ha post-emergence, 10 DAT
[12] = herbicide alone 32 g a.i./ha post-emergence, 10 DAT
[13] = HER 8 g a.i./ha + mefenpyr-diethyl 50 g a.i./ha, 10 DAT
[14] = HER 32 g a.i./ha + mefenpyr-diethyl 100 g a.i./ha, 10 DAT
[15] = herbicide alone 8 g a.i./ha, 10 DAT
[16] = herbicide alone 32 g a.i./ha, 10 DAT
[17] = HER 32 g a.i./ha + mefenpyr-diethyl 100 g a.i./ha
[18] = HER 24 g a.i./ha post-emergence, 21 DAT
[19] = HER 24 g a.i./ha + mefenpyr-diethyl 100 g a.i./ha, 21 DAT
[20] = HER 1.5 g a.i./ha + mefenpyr-diethyl 50 g a.i./ha
[21] = HER 6 g a.i./ha + mefenpyr-diethyl 50 g a.i./ha
[22] = HER 24 g a.i./ha + mefenpyr-diethyl 100 g a.i./ha
[23] = HER 2 g a.i./ha + mefenpyr-diethyl 50 g a.i./ha
[24] = HER 8 g a.i./ha + mefenpyr-diethyl 50 g a.i./ha

CC1(C(=O)NC2C=CC(C(=O)O)C2)CC(c2cc(F)cc(F)c2)=NO1 (stereo not shown) [Example 1.36]
HER effect + SAF [1, 5]: 50% | Reduction [%] [1, 5]: 46% | Reduction [Difference] [1, 5]: 43 | HER effect + SAF [1, 6]: 70% | Reduction [%] [1, 6]: 26% | Reduction [Difference] [1, 6]: 25 | HER effect ([1]; herbicide alone 4 g a.i./ha post-emergence, 21 DAT): 93% | HER effect ([1]; herbicide alone 16 g a.i./ha post-emergence, 21 DAT): 95% | HER effect + SAF [%] (crop damage) ([2]; HER dose 1 g a.i./ha): 0% | Reduction [%] ([2]; HER dose 1 g a.i./ha): 100% | Reduction [Difference] ([2]; HER dose 1 g a.i./ha): 85 | HER effect [%] (crop damage, herbicide without safener) ([2]; HER dose 1 g a.i./ha): 85% | HER effect + SAF [%] (crop damage) ([2]; HER dose 4 g a.i./ha): 30% | Reduction [%] ([2]; HER dose 4 g a.i./ha): 68% | Reduction [Difference] ([2]; HER dose 4 g a.i./ha): 63 | HER effect [%] (crop damage, herbicide without safener) ([2]; HER dose 4 g a.i./ha): 93% | HER effect + SAF [%] (crop damage) ([2]; HER dose 16 g a.i./ha): 50% | Reduction [%] ([2]; HER dose 16 g a.i./ha): 47% | Reduction [Difference] ([2]; HER dose 16 g a.i./ha): 45 | HER effect [%] (crop damage, herbicide without safener) ([2]; HER dose 16 g a.i./ha): 95% | HER effect + SAF [3, 7]: 60% | Reduction [%] [3, 7]: 25% | Reduction [Difference] [3, 7]: 20 | HER effect ([3]; herbicide alone 1 g a.i./ha, 10 DAT): 80% | HER effect + SAF [4, 8]: 20% | Reduction [%] [4, 8]: 76% | Reduction [Difference] [4, 8]: 65 | HER effect ([4]; herbicide alone 1 g a.i./ha): 85%

COC(=O)C1CC(NC(=O)C2(OC)CC(c3cc(F)cc(F)c3)=NO2)CO1 (mixture of isomers) [Example 1.72]
HER effect + SAF [1, 9]: 0% | Reduction [%] [1, 9]: 100% | Reduction [Difference] [1, 9]: 30 | HER effect + SAF [1, 10]: 0% | Reduction [%] [1, 10]: 100% | Reduction [Difference] [1, 10]: 50 | HER effect [1, 11]: 30% | HER effect [1, 12]: 50% | HER effect + SAF [%] (crop damage) ([2]; HER dose 8 g a.i./ha): 0% | Reduction [%] ([2]; HER dose 8 g a.i./ha): 100% | Reduction [Difference] ([2]; HER dose 8 g a.i./ha): 20 | HER effect [%] (crop damage, herbicide without safener) ([2]; HER dose 8 g a.i./ha): 20% | HER effect + SAF [%] (crop damage) ([2]; HER dose 32 g a.i./ha): 10% | Reduction [%] ([2]; HER dose 32 g a.i./ha): 83% | Reduction [Difference] ([2]; HER dose 32 g a.i./ha): 50 | HER effect [%] (crop damage, herbicide without safener) ([2]; HER dose 32 g a.i./ha): 60% | HER effect + SAF [3, 13]: 0% | Reduction [%] [3, 13]: 100% | Reduction [Difference] [3, 13]: 30 | HER effect + SAF [3, 14]: 10% | Reduction [%] [3, 14]: 80% | Reduction [Difference] [3, 14]: 40 | HER effect [3, 15]: 30% | HER effect [3, 16]: 50% | HER effect + SAF [4, 17]: 10% | Reduction [%] [4, 17]: 83% | Reduction [Difference] [4, 17]: 50 | HER effect ([4]; herbicide alone 32 g a.i./ha): 60%

C=CC1(C(=O)NC2C=C(C(=O)OCC#N)OC2)CC(c2cc(F)cc(F)c2)=NO1 (stereo not shown) [Example 1.91]
HER effect + SAF [1, 18]: 10% | Reduction [%] [1, 18]: 67% | Reduction [Difference] [1, 18]: 20 | HER effect ([1]; herbicide alone 24 g a.i./ha post-emergence, 21 DAT): 30% | HER effect + SAF [%] (crop damage) ([2]; HER dose 1.5 g a.i./ha): 10% | Reduction [%] ([2]; HER dose 1.5 g a.i./ha): 86% | Reduction [Difference] ([2]; HER dose 1.5 g a.i./ha): 60 | HER effect [%] (crop damage, herbicide without safener) ([2]; HER dose 1.5 g a.i./ha): 70% | HER effect + SAF [%] (crop damage) ([2]; HER dose 6 g a.i./ha): 20% | Reduction [%] ([2]; HER dose 6 g a.i./ha): 78% | Reduction [Difference] ([2]; HER dose 6 g a.i./ha): 70 | HER effect [%] (crop damage, herbicide without safener) ([2]; HER dose 6 g a.i./ha): 90% | HER effect + SAF [%] (crop damage) ([2]; HER dose 24 g a.i./ha): 10% | Reduction [%] ([2]; HER dose 24 g a.i./ha): 88% | Reduction [Difference] ([2]; HER dose 24 g a.i./ha): 70 | HER effect [%] (crop damage, herbicide without safener) ([2]; HER dose 24 g a.i./ha): 80% | HER effect + SAF [3, 19]: 10% | Reduction [%] [3, 19]: 67% | Reduction [Difference] [3, 19]: 20 | HER effect ([3]; herbicide alone 24 g a.i./ha, 21 DAT): 30% | HER effect + SAF [4, 20]: 0% | Reduction [%] [4, 20]: 100% | Reduction [Difference] [4, 20]: 70 | HER effect + SAF [4, 21]: 20% | Reduction [%] [4, 21]: 78% | Reduction [Difference] [4, 21]: 70 | HER effect + SAF [4, 22]: 50% | Reduction [%] [4, 22]: 38% | Reduction [Difference] [4, 22]: 30 | HER effect ([4]; herbicide alone 1.5 g a.i./ha): 70% | HER effect ([4]; herbicide alone 6 g a.i./ha): 90% | HER effect ([4]; herbicide alone 24 g a.i./ha): 80%

COC(=O)C1COCC1NC(=O)C1(C)CC(c2cc(F)cc(F)c2)=NO1 (mixture of isomers) [Example 1.93]
HER effect + SAF [1, 9]: 30% | Reduction [%] [1, 9]: 65% | Reduction [Difference] [1, 9]: 55 | HER effect + SAF [1, 10]: 70% | Reduction [%] [1, 10]: 22% | Reduction [Difference] [1, 10]: 20 | HER effect [1, 11]: 85% | HER effect [1, 12]: 90% | HER effect + SAF [%] (crop damage) ([2]; HER dose 2 g a.i./ha): 0% | Reduction [%] ([2]; HER dose 2 g a.i./ha): 100% | Reduction [Difference] ([2]; HER dose 2 g a.i./ha): 85 | HER effect [%] (crop damage, herbicide without safener) ([2]; HER dose 2 g a.i./ha): 85% | HER effect + SAF [%] (crop damage) ([2]; HER dose 8 g a.i./ha): 10% | Reduction [%] ([2]; HER dose 8 g a.i./ha): 89% | Reduction [Difference] ([2]; HER dose 8 g a.i./ha): 83 | HER effect [%] (crop damage, herbicide without safener) ([2]; HER dose 8 g a.i./ha): 93% | HER effect + SAF [%] (crop damage) ([2]; HER dose 32 g a.i./ha): 20% | Reduction [%] ([2]; HER dose 32 g a.i./ha): 79% | Reduction [Difference] ([2]; HER dose 32 g a.i./ha): 75 | HER effect [%] (crop damage, herbicide without safener) ([2]; HER dose 32 g a.i./ha): 95% | HER effect + SAF [3, 13]: 10% | Reduction [%] [3, 13]: 88% | Reduction [Difference] [3, 13]: 75 | HER effect + SAF [3, 14]: 30% | Reduction [%] [3, 14]: 67% | Reduction [Difference] [3, 14]: 60 | HER effect [3, 15]: 85% | HER effect [3, 16]: 90% | HER effect + SAF [4, 23]: 10% | Reduction [%] [4, 23]: 88% | Reduction [Difference] [4, 23]: 75 | HER effect + SAF [4, 24]: 50% | Reduction [%] [4, 24]: 46% | Reduction [Difference] [4, 24]: 43 | HER effect ([4]; herbicide alone 2 g a.i./ha): 85% | HER effect ([4]; herbicide alone 8 g a.i./ha): 93%
